Measurements taken from patent US5650398A, “Drug delivery enhancement via modified saponins” (Cambridge Biotech Corporation, priority 1995, dated 1997).

Columns and labels:
Sprague-Dawley rats = assay: Intranasal delivery of gentamicin, serum gentamicin by fluorescence polarization immunoassay; type: in vivo; conditions: 5 mg/kg gentamicin, 1.32 mM enhancer
Method: Experimental Conditions: Sprague-Dawley rats (male, 205-240 g) were anesthetized by intramuscular injection of 7.5 mg/kg xylazine with 50 mg/kg ketamine. Gentamicin (40 μl) was administered intranasally at time 0. Formulations contained 5 mg/kg gentamicin, with and without 1.32 mM QH-957. Blood was withdrawn from the tail vein at various timepoints. Serum gentamicin levels were measured using a fluorescence polarization immunoassay. The assay was linear from 0.3-10.0 μg/ml, and the limit of detection was 0.3 μg/ml. A value of 0.3 μg/ml was used in plotting the timepoints with serum levels below the limit of detection. Groups of 3 animals were used. Data are presented as ±standard error of the mean.
Experimental Conditions: Sprague-Dawley rats (male, 205-240 g) were anesthetized by intramuscular injection of 7.5 mg/kg xylazine with 50 mg/kg ketamine. Gentamicin (40 μl) was administered intranasally at time 0. […] Serum gentamicin levels were measured using a fluorescence polarization immunoassay. […]
Sprague-Dawley rats (male, 205-240 g) were anesthetized by intramuscular injection of 7.5 mg/kg xylazine with 50 mg/kg ketamine. […] Serum gentamicin levels were measured using a fluorescence polarization immunoassay. […] The area under the serum gentamicin concentration curve (AUC) was calculated using the trapezoidal rule. […]

[1] = literature values; cited from earlier work
rabbits = conditions: nasal administration; cited from earlier work

Row | Structure (SMILES) | enhanced intranasal permeation of gentamicin (serum gentamicin levels) (Sprague-Dawley rats) | concentration needed for drug delivery [1] [mM] | total absorption of β-interferon relative to intravenous administration (rabbits) [%]
1 | CC1(C)[C@@H](O[C@H]2O[C@H](C(=O)O)[C@@H](O)[C@H](O)[C@H]2O[C@@H]2O[C@H](C(=O)O)[C@@H](O)[C@H](O)[C@H]2O)CC[C@]2(C)[C@H]3C(=O)C=C4[C@@H]5C[C@@](C)(C(=O)O)CC[C@]5(C)CC[C@@]4(C)[C@]3(C)CC[C@@H]12 [glycyrrhizic acid] | did not | 23.8 | 
2 | C[C@H](CCC(=O)NCC(=O)[O-])[C@H]1CC[C@H]2[C@@H]3[C@H](O)C[C@@H]4C[C@H](O)CC[C@]4(C)[C@H]3C[C@H](O)[C@]12C.[Na+] [sodium glycocholate] | did not | 20.5 | 2.2
